Details: Liquid

C[C@H](O)C(=O)[O-].C[N+](C)(C)CCO
Details	mass density [kg/m3]
293.15 K, 101.33 kPa	1143.2
298.15 K, 101.33 kPa	1139.9
303.15 K, 101.33 kPa	1136.8
308.15 K, 101.33 kPa	1133.6
312.4 K, 100 kPa	1130
312.4 K, 10000 kPa	1133
312.4 K, 20000 kPa	1137
312.4 K, 30000 kPa	1140
312.4 K, 40000 kPa	1143
312.4 K, 50000 kPa	1146
312.4 K, 60000 kPa	1150
312.4 K, 70000 kPa	1152
312.4 K, 80000 kPa	1155
312.4 K, 90000 kPa	1157
312.4 K, 100000 kPa	1160
312.4 K, 110000 kPa	1163
312.4 K, 120000 kPa	1166
312.4 K, 130000 kPa	1168
312.4 K, 140000 kPa	1171
312.4 K, 150000 kPa	1173
312.4 K, 160000 kPa	1176
312.4 K, 170000 kPa	1178
312.4 K, 180000 kPa	1181
312.4 K, 190000 kPa	1183
312.4 K, 200000 kPa	1185
313.15 K, 101.33 kPa	1130.5
318.15 K, 101.33 kPa	1127.3
323.15 K, 101.33 kPa	1124.2
328.15 K, 101.33 kPa	1121.1
332.3 K, 10000 kPa	1121
332.3 K, 20000 kPa	1124
332.3 K, 30000 kPa	1128
332.3 K, 40000 kPa	1131
332.3 K, 50000 kPa	1134
332.3 K, 60000 kPa	1137
332.3 K, 70000 kPa	1140
332.3 K, 80000 kPa	1143
332.3 K, 90000 kPa	1146
332.3 K, 100000 kPa	1149
332.3 K, 110000 kPa	1152
332.3 K, 120000 kPa	1154
332.3 K, 130000 kPa	1157
332.3 K, 140000 kPa	1160
332.3 K, 150000 kPa	1162
332.3 K, 160000 kPa	1165
332.3 K, 170000 kPa	1168
332.3 K, 180000 kPa	1170
332.3 K, 190000 kPa	1172
332.3 K, 200000 kPa	1175
333.15 K, 101.33 kPa	1118.1
338.15 K, 101.33 kPa	1115.1
343.15 K, 101.33 kPa	1112.2
348.15 K, 101.33 kPa	1109.3
352.2 K, 10000 kPa	1109
352.2 K, 20000 kPa	1113
352.2 K, 30000 kPa	1116
352.2 K, 40000 kPa	1120
352.2 K, 50000 kPa	1123
352.2 K, 60000 kPa	1126
352.2 K, 70000 kPa	1129
352.2 K, 80000 kPa	1132
352.2 K, 90000 kPa	1135
352.2 K, 100000 kPa	1138
352.2 K, 110000 kPa	1141
352.2 K, 120000 kPa	1144
352.2 K, 130000 kPa	1146
352.2 K, 140000 kPa	1149
352.2 K, 150000 kPa	1152
352.2 K, 160000 kPa	1154
352.2 K, 170000 kPa	1157
352.2 K, 180000 kPa	1159
352.2 K, 190000 kPa	1162
352.2 K, 200000 kPa	1165
353.15 K, 101.33 kPa	1106.4
372.3 K, 10000 kPa	1098
372.3 K, 20000 kPa	1101
372.3 K, 30000 kPa	1105
372.3 K, 40000 kPa	1109
372.3 K, 50000 kPa	1112
372.3 K, 60000 kPa	1115
372.3 K, 70000 kPa	1118
372.3 K, 80000 kPa	1122
372.3 K, 90000 kPa	1125
372.3 K, 100000 kPa	1128
372.3 K, 110000 kPa	1130
372.3 K, 120000 kPa	1133
372.3 K, 130000 kPa	1136
372.3 K, 140000 kPa	1139
372.3 K, 150000 kPa	1142
372.3 K, 160000 kPa	1144
372.3 K, 170000 kPa	1147
372.3 K, 180000 kPa	1150
372.3 K, 190000 kPa	1152
372.3 K, 200000 kPa	1155
392.4 K, 10000 kPa	1086
392.4 K, 20000 kPa	1090
392.4 K, 30000 kPa	1094
392.4 K, 40000 kPa	1098
392.4 K, 50000 kPa	1101
392.4 K, 60000 kPa	1105
392.4 K, 70000 kPa	1108
392.4 K, 80000 kPa	1111
392.4 K, 90000 kPa	1114
392.4 K, 100000 kPa	1117
392.4 K, 110000 kPa	1121
392.4 K, 120000 kPa	1124
392.4 K, 130000 kPa	1126
392.4 K, 140000 kPa	1129
392.4 K, 150000 kPa	1132
392.4 K, 160000 kPa	1135
392.4 K, 170000 kPa	1138
392.4 K, 180000 kPa	1140
392.4 K, 190000 kPa	1143
392.4 K, 200000 kPa	1146

Source: the NIST ThermoML archive (doi:10.1021/je1008747)
